Assay results published in patent publication EP0966960A1, “Agent for inhibiting carcinogenesis or tumor metastasis” (DAINIPPON INK AND CHEMICALS, INC., priority 1998, dated 1999).

Tests used:
[1] = system: colon cancer strain highly metastasizable to liver (MOUSE COLON 26); assay: Inhibition of metastasis of colon cancer to liver; type: in vivo, BALB/c mouse; settings: for Number of visible tumor tubers (average ± SD): liver
Description: The abdomen of a BALB/c mouse was sectioned, and 2 × 10^4 cells of a colon cancer strain highly metastasizable to liver (MOUSE COLON 26) were injected into the portal vein. Zeaxanthin (4 µg/mouse in Test Example 1; 40 µg/mouse in Test Example 2; 400 µg/mouse in Test Example 3) and all-trans retinoic acid (ATRA) as a positive control were orally administered everyday for 5 consecutive days after the inoculation with tumor cells and then the administration was discontinued for 2 days. The cycle of the 5-day administration and the 2-day discontinuation was repeated twice. Twenty days later, the mouse was sacrificed, and the number of visible tumor tubers in the liver was counted. In Table 2, the mark "*" indicates a significant difference when p < 0.005 (Whitney's U-test).

B16-BL6 melanoma cells = assay: Inhibition of invasion of basement membrane (Transwell chamber); type: cell-based; settings: 4 hours
Description: The action mechanism of zeaxanthin for inhibiting metastasis of colon cancer to the liver in Example 2 was examined using a Transwell chamber.
A chamber which is separated into two layers (upper and lower layers) by a membrane filter having pores of 8 µm in diameter was used, the upper surface of the filter being coated with 5 µg of matrigel (a substrate for restructuring a basement membrane), and the lower surface being coated with 1 µg of fibronectin. B16-BL6 melanoma cells having a cell density of […] were added to the upper layer of the chamber, and were incubated in a 5%-CO2 incubator at 37°C for 4 hours in the presence of 0.05∼500 µM of zeaxanthin. After the incubation, the number of cells which invaded the surface of the lower part of the filter and shifted thereto were counted using an optical microscope. […]

[2] = Acute toxicity test on mice; parameters: species or system mouse (ICR male); settings: mouse, in vivo; oral by gastric probe, 1000 or 2000 mg/kg, n=3, 7 days observation; approximate, estimated from survival rate
Description: Using a gastric probe, zeaxanthin (having a purity of 98.5%) was forcibly orally administered to each mouse (ICR male weighing 20∼25 g, n=3) in an amount of 1000 or 2000 mg/kg. After the oral administration, the mice were reared in a cage for 7 days to observe the number of deaths and general conditions. An approximate median lethal dose (LD50, in mg/kg) was estimated from the survival rate of the mice after observation.

[3] = system: Naturally Occurring Hepatoma; assay: Carcinogenesis-inhibiting effect with regard to naturally occurring hepatoma; type: in vivo, C3H/He female mice
Description: C3H/He female mice (control group: 14 mice; test group: 12 mice), in which hepatoma is known to occur naturally, were allowed to freely take food and water for 40 weeks. For the mice of the test group, 20 mg zeaxanthin (having a purity of 98.5%) which was obtained in a manner similar to that of the above example of production of zeaxanthin was suspended in 1 ml dimethyl sulfoxide (DMSO), and thereafter the suspension was added to the drinking water of the test so that the final concentration of zeaxanthin was 0.005%. On the other hand, for the control group, only DMSO in the same amount was added to the drinking water. At the end of the 40 weeks, both groups of mice were sacrificed, and the number of tumors which occurred in the liver was counted.

skin cancer = assay: Inhibition of carcinogenesis (skin), 7,12-dimethylbenz[a]anthracene / TPA; type: in vivo, ICR male mouse
Description: The back of an ICR male mouse (control group: 15 mice; test group: 14 mice) was shaved, and 100 µg of 7,12-dimethylbenz[a]anthracene in 100 µl of acetone was applied thereto. Two days after the application, application of 1.6 nmol of 12-O-tetradecanoylphorbal-13-acetate (TPA) in 100 µl of acetone was begun and repeated twice a week. The duration of carcinogenesis promotion was set to 15 weeks.
An hour before every TPA application, 160 nmol zeaxanthin (which makes the molar ratio of TPA to zeaxanthin 1:100) in 100 µl of acetone was applied to the mice of test group. After the 15-week duration of carcinogenesis promotion, the ratio of occurrence of skin tumor and the average number of tumors were measured.
(§1) In Table 5, those values in parentheses indicate values obtained by dividing the number of mice in each group in which skin cancer occurred by the total number of mice in each group. The average number of tumors was obtained by dividing the total number of tumors in all mice in each group by the total number of mice in each group.

lung cancer = assay: Inhibition of carcinogenesis (lung), 4-nitroquinoline-1-oxide initiator / glycerin promoter; type: in vivo, ddY mice
Description: As a carcinogenesis initiator, 4-nitroquinoline-1-oxide dissolved in a solution of olive oil and cholesterol mixed in the ratio of 20:1 was administered subcutaneously in a single dose to ddY mice (a control group of 15 mice and a test group of 15 mice) in an amount of 10 mg/3.3ml/kg weight. Four weeks after administration, an 8% water solution of glycerin as a carcinogenesis promoter was given to the mice of the control group as drinking water for 25 weeks in a manner such that they could take it freely. (The duration of carcinogenesis promotion was 25 weeks).
In a manner similar to that for the control group, the carcinogenesis initiator was subcutaneously administered to the mice of the test group, and 4 weeks after the administration, an 8% water solution of glycerin as a carcinogenesis promoter was given to the mice of the test group as drinking water for 25 weeks in a manner such that they could take it freely, while zeaxanthin suspended in a liquid mixture of olive oil and "Tween 80" was forcibly administered to the mice of the test group 3 times a week throughout the 25-week duration of carcinogenesis promotion in an amount of 0.2 g per mouse per administration.
In addition, food and drinking water was given to the mice in a manner such that they could take it freely. Twenty five weeks after the start of the administration of zeaxanthin, that is, after the duration of carcinogenesis promotion was completed, the mice of both the control group and the test group were sacrificed, and the number of mice in which lung cancer occurred, and the average number of tumors were counted.
as §1, with “4,” for “5,”, “lung” for “skin”

[4] = from average number of tumors, test group versus control group

For `CC1=C(/C=C/C(C)=C/C=C/C(C)=C/C(=O)O)C(C)(C)CCC1` [ATRA, all-trans retinoic acid, reference compound], the “Number of visible tumor tubers (average ± SD)” value (shortened to “Number … (average ± SD)”) ([1]; positive control, orally, dose not given, twenty days later, * p < 0.005) was 0.83 ± 1.17* and the “Average weight of liver” value ([1]; positive control, orally, dose not given, twenty days later) was 0.92 g.

In the case of `CC1=C(/C=C/C(C)=C/C=C/C(C)=C/C=C/C=C(C)/C=C/C=C(C)/C=C/C2=C(C)C[C@@H](O)CC2(C)C)C(C)(C)C[C@H](O)C1` [zeaxanthin], the “Number … (average ± SD)” value ([1]; 4 µg/mouse orally, 5 days on / 2 days off, cycle repeated twice, twenty days later (no administration 12.25 ± 6.13)) is reported as 6.86 ± 2.27, the “Average weight of liver” value ([1]; 4 µg/mouse orally, twenty days later (no administration 2.16)) is reported as 1.36 g and the “Number … (average ± SD)” value ([1]; 40 µg/mouse orally, 5 days on / 2 days off, cycle repeated twice, twenty days later, * p < 0.005) is reported as 1.87 ± 1.96*. The “Average weight of liver” value ([1]; 40 µg/mouse orally, twenty days later) was 0.99 g, the “Number … (average ± SD)” value ([1]; 400 µg/mouse orally, 5 days on / 2 days off, cycle repeated twice, twenty days later, * p < 0.005) was 1.00 ± 2.13* and the “Average weight of liver” value ([1]; 400 µg/mouse orally, twenty days later) was 0.99 g. The “Number of cells which invaded/shifted to basement membrane” value (from here on “Number of cells which invaded/shifted”) (B16-BL6 melanoma cells; 0.05 µM, 37°C (DMSO only 157 ± 21)) was 137 ± 17, the “Number of cells which invaded/shifted” value (B16-BL6 melanoma cells; 0.5 µM, 37°C) was 119 ± 17 and the “Number of cells which invaded/shifted” value (B16-BL6 melanoma cells; 5 µM, 37°C, * p < 0.05) was 109 ± 12*. For the same molecule, the “Number of cells which invaded/shifted” value (B16-BL6 melanoma cells; 50 µM, 37°C, ** p < 0.005) was 88 ± 7**, the “Number of cells which invaded/shifted” value (B16-BL6 melanoma cells; 500 µM, 37°C, ** p < 0.005) was 36 ± 12** and the LD50 at 168 h [2] was greater than 2000 mg/kg. For the same molecule, the inhibition rate ([3]; test group versus control group, 40 weeks) was 95%, the “Number of mice in which tumor occurred (percentage)” value ([3]; zeaxanthin 0.005% in drinking water, 40 weeks, 12 mice (control 35.7%)) was 8.3% and the “Number of mice in which tumor occurred” value ([3]; zeaxanthin 0.005% in drinking water, 40 weeks, 12 mice, liver tumors (control 5 of 14)) was 1. For the same molecule, the “Average number of tumors” value ([3]; zeaxanthin 0.005% in drinking water, 40 weeks, liver (control 1.75)) was 0.08, the “Average number of tumors” value (skin cancer; 160 nmol applied an hour before every TPA application, 15 weeks (control 1.60)) was 0.86 and the “Number of mice in which skin cancer occurred (divided by total number of mice)” value (skin cancer; 160 nmol applied an hour before every TPA application, 15 weeks (control 47%)) was 21%. The “Number of mice in which skin cancer occurred” value (skin cancer; 160 nmol applied an hour before every TPA application, 15 weeks, 14 mice (control 7 of 15)) was 3, the “Inhibition ratio of carcinogenesis” value (skin cancer; [4]) was 46% and the “Average number of tumors” value (lung cancer; 0.2 g per mouse per administration, 3 times a week, 25 weeks (control 1.40)) was 0.38. For the same molecule, the “Number of mice in which lung cancer occurred (divided by total number of mice)” value (lung cancer; 0.2 g per mouse per administration, 3 times a week, 25 weeks (control 73%)) was 33%, the “Number of mice in which lung cancer occurred” value (lung cancer; 0.2 g per mouse per administration, 3 times a week, 25 weeks, 15 mice (control 11 of 15)) was 5 and the “Inhibition ratio of carcinogenesis” value (lung cancer; [4]) was 73%.

With `CC1=C(/C=C/C(C)=C/C=C/C(C)=C/C=C/C=C(C)/C=C/C=C(C)/C=C/C2=C(C)CCCC2(C)C)C(C)(C)CCC1` [β-carotene, reference compound] the “effect in inhibiting natural carcinogenesis” value ([3]; experiments conducted in the same manner as in Example 1) was “no such effect”.
